{"source": "paper PMC7125537", "about": "(Bioorganic & Medicinal Chemistry Letters, 2010)", "tested_on": "DU-145 cells", "test": "Migration assay", "type": "cell-based, human", "data": [{"smiles": "NC(=S)N/N=C(/c1cccc(Br)c1)c1ccccc1F", "note": "[analog 1, 3-bromophenyl-2′-fluorophenyl thiosemicarbazone]", "values": [{"measurement": "inhibition of DU-145 cell migration (in words)", "value": "effective inhibitor of DU-145 cell invasion and migration"}]}]}
